Assay results as given in patent US10829517B2, “Method for treating or/and preventing calcium deficiency-related diseases” (National Chung Hsing University, priority 2017, dated 2020).
Ends that are not written are not given here.

Legend:
[1] = molecular target: T1, calcium ion channel V6 (Homo sapiens, UniProt Q9H1D0); test: Caco-2 calcium uptake with calcium ion channel V6 inhibitor ruthenium red; type: cell-based; details: 6 mM calcium ions, 400 μM peptide of SEQ ID No. 1
T1 construct: endogenous in cells; host or cells: Caco-2
T1 sequence (Q9H1D0 1-765): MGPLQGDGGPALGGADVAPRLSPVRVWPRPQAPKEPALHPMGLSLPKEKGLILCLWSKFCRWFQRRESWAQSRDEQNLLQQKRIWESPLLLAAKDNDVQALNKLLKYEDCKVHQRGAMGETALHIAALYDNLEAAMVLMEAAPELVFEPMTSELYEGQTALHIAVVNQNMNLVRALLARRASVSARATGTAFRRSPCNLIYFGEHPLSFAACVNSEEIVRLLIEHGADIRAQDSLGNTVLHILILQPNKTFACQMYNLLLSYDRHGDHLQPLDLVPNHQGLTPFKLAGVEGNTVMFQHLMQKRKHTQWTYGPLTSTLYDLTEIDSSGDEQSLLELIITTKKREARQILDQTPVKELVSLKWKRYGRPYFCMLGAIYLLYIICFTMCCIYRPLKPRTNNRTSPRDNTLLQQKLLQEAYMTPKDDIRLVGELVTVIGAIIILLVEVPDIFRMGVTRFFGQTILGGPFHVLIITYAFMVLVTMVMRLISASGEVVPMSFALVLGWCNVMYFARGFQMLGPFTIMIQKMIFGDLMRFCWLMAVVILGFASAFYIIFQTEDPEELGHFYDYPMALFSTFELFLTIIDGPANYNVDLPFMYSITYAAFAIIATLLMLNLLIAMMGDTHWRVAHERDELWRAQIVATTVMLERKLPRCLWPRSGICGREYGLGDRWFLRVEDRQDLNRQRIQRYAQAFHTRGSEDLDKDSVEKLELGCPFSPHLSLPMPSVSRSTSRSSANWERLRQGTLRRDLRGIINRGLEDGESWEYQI
Procedure: The steps were the same as those described in Example 5, except that the calcium ion channel V6 inhibitor: ruthenium red (RUR) was administered at the 154th second.

[2] = tested on: Caco-2 cells; test: Calcium uptake in Fluo-3-AM loaded Caco-2 cells (fluorescence intensity); type: cell-based, human
Procedure: The Caco-2 cell monolayer was cultured in a 10 cm2 culture dish containing DEME medium, and the cells were separated by TrypLE (Invitrogen, Carlsbad, Calif.) and washed several times with a phosphate-free KRH (Krebs Ringer Heps) solution. 5 μL of 1 mM Fluo-3-AM dye and 20% (w/v) thermally reversible hydrogel (Pluronic F-127, RF127) solution were added at 37° C. for about 30 minutes to obtain a Caco-2 cell suspension.
The Caco-2 cell suspension containing Fluo-3-AM dye was thoroughly rinsed in phosphate-free KRH solution and aliquoted, each aliquot containing 5×10^7 cells. After each aliquot was pelletized, the cells were resuspended in 240 μL of the phosphate-free KRH solution, and then transferred to a 96-well plate for use.

[3] = 400 μM peptide, 6 mM calcium ions, compared with 400 μM CPP group and no-peptide group

Compound: N.N.N.N.N.N.N.N.N.N.N.N.N.N.[Cl-].[Cl-].[Cl-].[Cl-].[Cl-].[Cl-].[O-2].[O-2].[Ru+3].[Ru+3].[Ru+4] [ruthenium red]
- percentage decrease of peak calcium ion (peak [Ca2+]) compared to the first group ([1]; ruthenium red 10 μM (second group) vs 0 μM): 41.9%
- percentage decrease of peak calcium ion (peak [Ca2+]) compared to the first group ([1]; ruthenium red 20 μM (third group) vs 0 μM): 57.3%
- percentage decrease of peak calcium ion (peak [Ca2+]) compared to the first group ([1]; ruthenium red 50 μM (fourth group) vs 0 μM): 72.0%
- percentage decrease of peak calcium ion (peak [Ca2+]) compared to the first group ([1]; ruthenium red 100 μM (fifth group) vs 0 μM): 86.7%

Compound: SEQ ID No. 2: peptide of SEQ ID No. 1 with the C-terminal 5 amino acids removed (TEVPAINTIASA)
- calcium-absorption promotion ability ([2]; Example 17, FIG. 36, Caco-2 cells): have the ability to promote calcium absorption

Compound: TEVPAINTIASAEPTVH [SEQ ID No. 1]
- calcium ion concentration (peak [Ca2+]) in Caco-2 cells [2, 3]: significantly increased
- fluorescence intensity in Caco-2 cells [2, 3]: significantly higher
- fluorescence intensity in Caco-2 cells ([2]; at the 442th second, 0 mM calcium ions (first group), 400 μM peptide): 7,059,148
- fluorescence intensity in Caco-2 cells ([2]; at the 442th second, 0.3 mM calcium ions (second group), 400 μM peptide): 9,780,517
- fluorescence intensity in Caco-2 cells ([2]; at the 442th second, 0.5 mM calcium ions (third group), 400 μM peptide): 9,720,348
- fluorescence intensity in Caco-2 cells ([2]; at the 442th second, 1.5 mM calcium ions (fourth group), 400 μM peptide): 10,604,175
- fluorescence intensity in Caco-2 cells ([2]; at the 442th second, 3 mM calcium ions (fifth group), 400 μM peptide): 10,986,171
- fluorescence intensity in Caco-2 cells ([2]; at the 442th second, 6 mM calcium ions (sixth group), 400 μM peptide): 10,912,015
